Measured values taken from the NIST ThermoML archive (doi:10.1016/j.jct.2017.07.016).

Assays:
[1] = 96.7 kPa, Liquid; for viscosity: Capillary tube (Ostwald / Ubbelohde) method; for mass density: Vibrating tube method
[2] = xn = mol fraction of the nth substance listed; conditions: 96.7 kPa, Liquid, x2 = 0; for viscosity: Capillary tube (Ostwald / Ubbelohde) method; for mass density: Vibrating tube method

C[S+](C)[O-] [dimethyl sulfoxide]
[1]
Conditions	mass density [kg/m3]	viscosity [mPa·s]
303.15 K	1090.29	1.8
308.15 K	1085.28	1.665
313.15 K	1080.3	1.529
318.15 K	1075.31	1.407
323.15 K	1070.32	1.304
328.15 K	1065.33	1.211
333.15 K	1060.34	1.127
338.15 K	1055.34	1.056
343.15 K	1050.35	0.989
348.15 K	1045.34	0.931
353.15 K	1040.33	0.878

CCCCCCn1cc[n+](C)c1.[Cl-] [1-hexyl-3-methylimidazolium chloride]
[1]
Conditions	mass density [kg/m3]	viscosity [mPa·s]
303.15 K	1036.07	5718.5
308.15 K	1033.22	3430.8
313.15 K	1030.38	2146.1
318.15 K	1027.56	1390.4
323.15 K	1024.75	928.1
328.15 K	1021.92	638.79
333.15 K	1019.13	453.59
338.15 K	1016.38	327.52
343.15 K	1013.65	243.04
348.15 K	1010.91	183.45
353.15 K	1008.18	140.06

C[S+](C)[O-] [dimethyl sulfoxide] + CCCCCCn1cc[n+](C)c1.[Cl-]
[2]
Conditions	mass density [kg/m3]	viscosity [mPa·s]
303.15 K	1090.29	1.8
308.15 K	1085.28	1.665
313.15 K	1080.3	1.529
318.15 K	1075.31	1.407
323.15 K	1070.32	1.304
328.15 K	1065.33	1.211
333.15 K	1060.34	1.127
338.15 K	1055.34	1.056
343.15 K	1050.35	0.989
348.15 K	1045.34	0.931
353.15 K	1040.33	0.878

CN(C)C=O [dimethylformamide]
[1]
Conditions	mass density [kg/m3]	viscosity [mPa·s]
303.15 K	939.18	0.766
308.15 K	934.41	0.723
313.15 K	929.64	0.685
318.15 K	924.86	0.651
323.15 K	920.07	0.619
328.15 K	915.26	0.589
333.15 K	910.44	0.562
338.15 K	905.6	0.537
343.15 K	900.74	0.514
348.15 K	895.87	0.493
353.15 K	890.98	0.473

c1ccncc1 [pyridine]
[1]
Conditions	mass density [kg/m3]	viscosity [mPa·s]
303.15 K	973.09	0.843
308.15 K	968.06	0.789
313.15 K	963.02	0.741
318.15 K	957.97	0.697
323.15 K	952.9	0.658
328.15 K	947.82	0.622
333.15 K	942.72	0.59
338.15 K	937.6	0.56
343.15 K	932.46	0.533
348.15 K	927.3	0.507
353.15 K	922.12	0.485

CC(=O)N(C)C [N,N-dimethylethanamide]
[1]
Conditions	mass density [kg/m3]	viscosity [mPa·s]
303.15 K	931.85	0.891
308.15 K	927.26	0.834
313.15 K	922.66	0.785
318.15 K	918.06	0.739
323.15 K	913.44	0.698
328.15 K	908.81	0.661
333.15 K	904.16	0.627
338.15 K	899.53	0.598
343.15 K	894.87	0.567
348.15 K	890.19	0.541
353.15 K	885.51	0.516

CC(=O)N(C)C [N,N-dimethylethanamide] + CCCCCCn1cc[n+](C)c1.[Cl-]
[2]
Conditions	mass density [kg/m3]	viscosity [mPa·s]
303.15 K	931.85	0.891
308.15 K	927.26	0.834
313.15 K	922.66	0.785
318.15 K	918.06	0.739
323.15 K	913.44	0.698
328.15 K	908.81	0.661
333.15 K	904.16	0.627
338.15 K	899.53	0.598
343.15 K	894.87	0.567
348.15 K	890.19	0.541
353.15 K	885.51	0.516

c1ccncc1 [pyridine] + CCCCCCn1cc[n+](C)c1.[Cl-]
[2]
Conditions	mass density [kg/m3]	viscosity [mPa·s]
303.15 K	973.09	0.843
308.15 K	968.06	0.789
313.15 K	963.02	0.741
318.15 K	957.97	0.697
323.15 K	952.9	0.658
328.15 K	947.82	0.622
333.15 K	942.72	0.59
338.15 K	937.6	0.56
343.15 K	932.46	0.533
348.15 K	927.3	0.507
353.15 K	922.12	0.485

CN(C)C=O [dimethylformamide] + CCCCCCn1cc[n+](C)c1.[Cl-]
[2]
Conditions	mass density [kg/m3]	viscosity [mPa·s]
303.15 K	939.18	0.766
308.15 K	934.41	0.723
313.15 K	929.64	0.685
318.15 K	924.86	0.651
323.15 K	920.07	0.619
328.15 K	915.26	0.589
333.15 K	910.44	0.562
338.15 K	905.6	0.537
343.15 K	900.74	0.514
348.15 K	895.87	0.493
353.15 K	890.98	0.473
